Molecules are shown by their SMILES. Where a name gives a salt, the structure may show the parent alone.

One test deals with IL-23 (p19/p40). As to the kind of experiment: IL23-p19 ELISA, dendritic cells (DC differentiated from human PBMC, IFNγ primed), LPS stimulated. Conditions: Dendritic cell, human PBMC-derived dendritic cells, 1 h compound pre-incubation, LPS 1 μg/ml 18 hours, 10 pt. In kind it is cell-based. The method in brief: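 PBMC-derived DCs (GM-CSF 100 ng/ml + IL-4 20 ng/ml, 7 days) primed 24 h with IFNγ 50 ng/ml, 50K cells/well; compound pre-incubated 1 h at 37° C, then LPS, 18 h. Supernatant IL-23 by p19-capture/p40-detection chemiluminescent ELISA; cytotoxicity by Cell Titer Glo.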

In a further test the test system is IL-23p19. Description: LPS Induced IL23p19 in THP-1 Cells (with IFNγ Primed) Assay. It counts as cell-based, human. Conditions: Homo sapiens, THP-1, THP-1 cells, IFNγ (50 ng/mL) primed, 1 hour compound pre-incubation, LPS 1 ug/mL 18 hours, 10 pt; read-out: IL23-p19 ELISA, THP1-IFNy, LPS, 10 pt EC50. In short, it runs like this:
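THP-1 cells (50K/well) primed ~18 h with IFNγ (50 ng/mL) in RPMI/10% FBS, then incubated with compound in duplicate for 18 h at 37° C. Supernatant IL-23p19 measured by chemiluminescent sandwich ELISA, giving EC50 by curve fitting. Toxicity assessed in parallel on the remaining cells by Cell Titer Glo.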

Take `Cn1cc(NC(=O)c2cccc(-c3ccnc(NCC(F)(F)F)c3)n2)c(-c2ccccn2)n1` [Compound I-161, N-(1-methyl-3-(pyridin-2-yl)-1H-pyrazol-4-yl)-2′-((2,2,2-trifluoroethyl)amino)-[2,4′-bipyridine]-6-carboxamide formate]: the EC50 amounted to 4200 nM with IL-23 (p19/p40) and 7520 nM in the test on IL-23p19.

For the molecule `COC1CC(n2cc(NC(=O)c3cccc(-c4cncc(C)c4)n3)c(-c3ccccn3)n2)C1` (stereo not shown) [Compound I-162, N-(1-(3-methoxycyclobutyl)-3-(pyridin-2-yl)-1H-pyrazol-4-yl)-5′-methyl-[2,3′-bipyridine]-6-carboxamide formate], the half-maximal effective concentration (EC50) with IL-23 (p19/p40) stood at 167 nM; in the test with IL-23p19, 499 nM.

On to `COC1CC(n2cc(NC(=O)c3cccc(-c4cn[nH]c4)n3)c(-c3ccccn3)n2)C1` (stereo not shown) [Compound I-163, N-(1-(3-methoxycyclobutyl)-3-(pyridin-2-yl)-1H-pyrazol-4-yl)-6-(1H-pyrazol-4-yl)picolinamide formate], for which the EC50 in the test with IL-23 (p19/p40) came to 1060 nM; in the test on IL-23p19, 371 nM.

On to `Cc1cncc(-c2cccc(C(=O)Nc3cn(C4CCOCC4)nc3-c3ccccn3)n2)c1` [Compound I-164, 5′-methyl-N-(3-(pyridin-2-yl)-1-(tetrahydro-2H-pyran-4-yl)-1H-pyrazol-4-yl)-[2,3′-bipyridine]-6-carboxamide], for which the figures for the EC50 in the test with IL-23 (p19/p40) and in the test on IL-23p19 were 2890 nM and 1370 nM, respectively.

Turning to `O=C(Nc1cn(C2CCOCC2)nc1-c1ccccn1)c1cccc(-c2cc[nH]n2)n1` [Compound I-166, 6-(1H-pyrazol-3-yl)-N-(3-(pyridin-2-yl)-1-(tetrahydro-2H-pyran-4-yl)-1H-pyrazol-4-yl)picolinamide], the concentration for a half-maximal effect (EC50) in the test with IL-23 (p19/p40) was 71 nM; with IL-23p19, 1090 nM.

As for `COCCCn1cc(NC(=O)c2cccc(-c3cncc(C)c3)n2)c(-c2ccccn2)n1` [Compound I-169, N-(1-(3-methoxypropyl)-3-(pyridin-2-yl)-1H-pyrazol-4-yl)-5′-methyl-[2,3′-bipyridine]-6-carboxamide], the EC50 in the test with IL-23 (p19/p40) amounted to 2420 nM; in the test with IL-23p19, 557 nM.

Regarding `CN1CCN(c2ccc(-c3nn(C)cc3NC(=O)c3cccc(-c4cn[nH]c4)n3)nc2)CC1` [Compound I-174, N-(1-methyl-3-(5-(4-methylpiperazin-1-yl)pyridin-2-yl)-1H-pyrazol-4-yl)-6-(1H-pyrazol-4-yl)picolinamide], the EC50 with IL-23 (p19/p40) stood at 7070 nM; in the test with IL-23p19, 19500 nM.

In the case of `CN1CCN(c2ccc(-c3nn(C)cc3NC(=O)c3cccc(-c4cc[nH]n4)n3)nc2)CC1` [Compound I-175, N-(1-methyl-3-(5-(4-methylpiperazin-1-yl)pyridin-2-yl)-1H-pyrazol-4-yl)-6-(1H-pyrazol-3-yl)picolinamide], the EC50 in the test with IL-23 (p19/p40) was 6840 nM; in the test with IL-23p19, 9010 nM.

As for `Cc1cncc(-c2cccc(C(=O)Nc3cn(C)nc3-c3ccc(N4CCN(C)CC4)cn3)n2)c1` [Compound I-177, 5′-methyl-N-(1-methyl-3-(5-(4-methylpiperazin-1-yl)pyridin-2-yl)-1H-pyrazol-4-yl)-[2,3′-bipyridine]-6-carboxamide dihydrochloride], the figures for the concentration for a half-maximal effect (EC50) in the test on IL-23 (p19/p40) and in the test with IL-23p19 were 12200 nM and 21700 nM, respectively.

Regarding `Cc1cncc(-c2cccc(C(=O)Nc3cn(C)nc3-c3ccc(OCC(C)(C)O)cn3)n2)c1` [Compound I-178, N-(3-(5-(2-hydroxy-2-methylpropoxy)pyridin-2-yl)-1-methyl-1H-pyrazol-4-yl)-5′-methyl-[2,3′-bipyridine]-6-carboxamide], the concentration giving a half-maximal response (EC50) was determined as 19300 nM in the test on IL-23 (p19/p40) and 2070 nM in the test on IL-23p19.

On to `Cn1cc(NC(=O)c2cccc(-c3cc[nH]n3)n2)c(-c2ccc(OCC(C)(C)O)cn2)n1` [Compound I-180, N-(3-(5-(2-hydroxy-2-methylpropoxy)pyridin-2-yl)-1-methyl-1H-pyrazol-4-yl)-6-(1H-pyrazol-3-yl)picolinamide], for which the EC50 is 1190 nM in the test with IL-23 (p19/p40) and 340 nM in the test on IL-23p19.

Take `Cc1cncc(-c2cccc(C(=O)Nc3cn(C)nc3-c3ccc(OC4COC4)cn3)n2)c1` [Compound I-181, 5′-methyl-N-(1-methyl-3-(5-(oxetan-3-yloxy)pyridin-2-yl)-1H-pyrazol-4-yl)-[2,3′-bipyridine]-6-carboxamide]: the half-maximal effective concentration (EC50) in the test with IL-23 (p19/p40) was 4180 nM; in the test on IL-23p19 it was 1490 nM.

`Cn1cc(NC(=O)c2cccc(-c3cc[nH]n3)n2)c(-c2ccc(OC3COC3)cn2)n1` [Compound I-183, N-(1-methyl-3-(5-(oxetan-3-yloxy)pyridin-2-yl)-1H-pyrazol-4-yl)-6-(1H-pyrazol-3-yl)picolinamide]: the EC50 in the test on IL-23 (p19/p40) worked out at 216 nM; with IL-23p19, 96.1 nM.

Turning to `CCO[C@H]1CC[C@H](n2cc(NC(=O)c3cccc(-c4cn[nH]c4)n3)c(-c3ncc(F)cc3F)n2)CC1` [Compound I-184, N-(3-(3,5-difluoropyridin-2-yl)-1-(trans-4-ethoxycyclohexyl)-1H-pyrazol-4-yl)-6-(1H-pyrazol-4-yl)picolinamide], the EC50 was 8250 nM in the test with IL-23 (p19/p40) and 328 nM in the test with IL-23p19.

The values are drawn from patent publication US10947216B2, “Amide compounds and method for making and using” (Rigel Pharmaceuticals, Inc., priority 2016, dated 2021).
